Key:
[1] = test system: GCT cell lines; assay: XTT cell viability assay, GCT cell lines (pre-screen / summary); format: cell-based, Human; conditions: first pre-screen, XTT; for EC50 / effective concentration in words: SE and EC proxies TCam-2 and 2102EP; for EC50: Homo sapiens, GCT, read-out: EC50
Protocol: (§1) The […] (XTT) assays were performed as described previously. In summary, for GCT and fibroblast cell lines 5 × 10^3 cells (3 × 10^3 for UC, PCa and RCC cell lines) per 96-well were seeded and different drug concentrations (see Additional file 2: Fig. S2, Additional file 3: Fig. S3) or corresponding solvents were added to the cells the following day. For drug details see Additional file 12: Table S2 C. Each condition was analyzed in four technical replicates and EC50 values were calculated by GraphPad Prism v8.

[2] = test system: 2102EP (EC); assay: XTT cell viability assay, 2102EP; format: cell-based; conditions: Homo sapiens; after 48 h, XTT, n = 4; read-out: EC50 colour/symbol code, EC 2102EP
Protocol: as §1

[3] = test system: JAR (CC); assay: XTT cell viability assay, JAR; format: cell-based; conditions: Homo sapiens, after 48 h, n = 4, read-out: EC50 colour/symbol code, CC JAR
Protocol: as §1

[4] = test system: TCam-2 (SE); assay: XTT cell viability assay, TCam-2; format: cell-based; conditions: Homo sapiens; after 48 h, XTT, n = 4; read-out: EC50 colour/symbol code, SE TCam-2
Protocol: as §1

[5] = test system: phosphorylated kinase targets in 2102EP cells; assay: Proteome Profiler Human Phospho-Kinase Array; format: cell-based; conditions: 16 h
Protocol: For the detection of phosphorylated kinase targets, the Proteome Profiler Human Phospho-Kinase Array Kit (R&D Systems, Abingdon, UK) was used according to the manufacturer’s instructions. The ChemiDoc Imaging System (Bio-Rad Laboratories, Feldkirchen, Germany) was used for detection. 2102EP cells were harvested after 16 h of treatment with the epi-drugs. Pixel density was analyzed using Fiji ImageJ 1.53c.

[6] = test system: DNA methylation (5mC, 5hmC) in 2102EP cells; assay: DNA slot blot (5mC, 5hmC); format: cell-based, Human; conditions: 24 h
[7] = test system: transcriptome of 2102EP cells; assay: RNA sequencing; format: cell-based, Human; conditions: 16 h
Protocol: Transcriptome analysis has been performed as previously described at the core facility ‘Genomics & Transcriptomics’ (Prof. Dr. Karl Köhrer, Biomedical Research Center, Heinrich Heine University, Düsseldorf, Germany) and has been publicly shared via GEO (https://www.ncbi.nlm.nih.gov/geo/, GSE189472). RNA samples were quantified and measured as previously described. Statistical analyses were performed using the ‘Differential Expression in two groups’ tool (version 1.02) (Qiagen) and the resulting p values were corrected for multiple testing by false discovery rate (FDR). Accompanying PCA and heatmap were generated using Qlucore Omics Explorer 3.7 (Qlucore AB, Lund, Sweden). Values of solvent controls wereaveraged from the studies GSE189472, GSE190792 and GSE190022 [95].

[8] = test system: histone modifications in 2102EP cells; assay: Mass spectrometry analysis of histone modifications (Mod Spec); format: cell-based, Human
Protocol: 2102EP cells were treated with the EC50 concentrations for Quisinostat, JIB-04, Chaetocin, MZ-1, LP99, PRT4165, GSK343 and DMSO as solvent control. The cells were harvested via trypsinization after 16 h. The mass spectrometric analysis of histone modifications was outsourced to the Mod Spec service by Active Motif (Carlsbad, CA, USA). Histone extraction and mass spectrometric analysis was performed as described previously. Raw data were transformed into z-scores as the input. The heatmap was generated in R using ‘pheatmap’ with default settings and provided by Active Motif.

[9] = sorted data log2>±1.5, FDR p<0.05
[10] = 2102EP cells, Mod Spec raw data
[11] = 2102EP, EC50, 16 h, vs solvent control

COc1cc(-c2cn(C)c(=O)c3cnccc23)cc(OC)c1CN1CCN(CCCCCOc2cc(-c3scnc3C)ccc2CNC(=O)[C@@H]2C[C@@H](O)CN2C(=O)[C@@H](NC(=O)C2(F)CC2)C(C)(C)C)CC1 [VZ185]
EC50 / effective concentration in words [1]: low micromolar concentrations | EC50 [2]: 1 to 50 µM | EC50 [3]: 1 to 50 µM | EC50 [4]: 1 to 50 µM

O=C(O)c1ccc(CN2CCC(CN[C@@H]3C[C@H]3c3ccccc3)CC2)cc1 [GSK2879552]
EC50 [1]: > 50 µM | EC50 [2]: > 50 µM | EC50 [3]: > 50 µM | EC50 [4]: > 50 µM

COc1cc(-c2cn(C)c(=O)c3cnccc23)c(OC)cc1CN(C)C [BI-9564]
EC50 [1]: > 50 µM | EC50 [2]: > 50 µM | EC50 [3]: > 50 µM | EC50 [4]: > 50 µM

Clc1ccc(N/N=C(\c2ccccc2)c2ccccn2)nc1 [JIB-04]
CREB, STAT3 and STAT5 phosphorylation and total levels of β-Catenin and HSP60 [5]: decreased | ERK1/2 phosphorylation [5]: decreased | p53 S15 phosphorylation [5]: increased | reduction in 5mC levels [6]: 27% | DDIT4 Log2 fold change vs. DMSO [7, 9]: 1.60 | EIF3CL Log2 fold change vs. DMSO [7, 9]: -1.72 | SLC16A3 Log2 fold change vs. DMSO [7, 9]: 1.76 | A1BG Log2 fold change vs. DMSO ([7]; unsorted data): -0.0173 | A1CF Log2 fold change vs. DMSO ([7]; unsorted data): -2.00 | A2M Log2 fold change vs. DMSO ([7]; unsorted data): 0.04 | EC50 / effective concentration in words [1]: nanomolar range | H1.4: K25AC, % of peptide pool [8, 10]: 0.003915% | H1.4: K25ME1, % of peptide pool [8, 10]: 2.18% | H1.4: K25ME2, % of peptide pool [8, 10]: 0.06041% | H1.4: K25ME3, % of peptide pool [8, 10]: 0.002903% | H1.4: K25UN, % of peptide pool [8, 10]: 97.7528% | H2A1: K13AC, % of peptide pool [8, 10]: 0.01774% | H2A1: K13UN, % of peptide pool [8, 10]: 99.9823% | H2A1: K15AC, % of peptide pool [8, 10]: 0.006947% | H2A1: K15UB, % of peptide pool [8, 10]: 0% | H2A1: K15UN, % of peptide pool [8, 10]: 99.9931% | H2A3: K13AC, % of peptide pool [8, 10]: 0.0449% | H2A3: K13UN, % of peptide pool [8, 10]: 99.9551% | H2A3: K15AC, % of peptide pool [8, 10]: 0.04676% | H2A3: K15UB, % of peptide pool [8, 10]: 0% | H2A3: K15UN, % of peptide pool [8, 10]: 99.9532% | H2A: K5AC, % of peptide pool [8, 10]: 17.3435% | H2A: K5UN, % of peptide pool [8, 10]: 82.6565% | H2A: K9AC, % of peptide pool [8, 10]: 2.608% | H2A: K9UN, % of peptide pool [8, 10]: 97.3916% | H2A: K36AC, % of peptide pool [8, 10]: 0.02653% | H2A: K36UN, % of peptide pool [8, 10]: 99.9735% | H3: K9AC, % of peptide pool [8, 10]: 0.7026% | H3: K9ME1, % of peptide pool [8, 10]: 34.4011% | H3: K9ME2, % of peptide pool [8, 10]: 29.5437% | H3: K9ME3, % of peptide pool [8, 10]: 3.1432% | H3: K9UN, % of peptide pool [8, 10]: 32.2094% | H3: K14AC, % of peptide pool [8, 10]: 29.7131% | H3: K14UN, % of peptide pool [8, 10]: 70.2869% | H3: K18AC, % of peptide pool [8, 10]: 13.9058% | H3: K18ME1, % of peptide pool [8, 10]: 0.1878% | H3: K18UN, % of peptide pool [8, 10]: 85.9064% | H3: K23AC, % of peptide pool [8, 10]: 21.6519% | H3: K23ME1, % of peptide pool [8, 10]: 0.01047% | H3: K23UN, % of peptide pool [8, 10]: 78.3377% | H3: K56AC, % of peptide pool [8, 10]: 0.09324% | H3: K56ME1, % of peptide pool [8, 10]: 0.04566% | H3: K56UN, % of peptide pool [8, 10]: 99.8611% | H3: K64AC, % of peptide pool [8, 10]: 0.01353% | H3: K64UN, % of peptide pool [8, 10]: 99.9865% | H3: K79AC, % of peptide pool [8, 10]: 0.03684% | H3: K79ME1, % of peptide pool [8, 10]: 12.2939% | H3: K79ME2, % of peptide pool [8, 10]: 5.57% | H3: K79ME3, % of peptide pool [8, 10]: 6.201% | H3: K79UN, % of peptide pool [8, 10]: 75.8979% | H3: K122AC, % of peptide pool [8, 10]: 0.03356% | H3: K122UN, % of peptide pool [8, 10]: 99.9664% | H3: Q19ME1, % of peptide pool [8, 10]: 0.003167% | H3: Q19UN, % of peptide pool [8, 10]: 99.9968% | H3: Q55ME1, % of peptide pool [8, 10]: 0.032% | H3: Q55UN, % of peptide pool [8, 10]: 99.968% | H3: R42ME2, % of peptide pool [8, 10]: 1.896% | H3: R42UN, % of peptide pool [8, 10]: 98.1041% | H3: R49ME2, % of peptide pool [8, 10]: 4.211% | H3: R49UN, % of peptide pool [8, 10]: 95.789% | H3R2UN: K4AC, % of peptide pool [8, 10]: 0.05876% | H3R2UN: K4ME1, % of peptide pool [8, 10]: 17.7716% | H3R2UN: K4ME2, % of peptide pool [8, 10]: 0.2231% | H3R2UN: K4ME3, % of peptide pool [8, 10]: 0.06844% | H3R2UN: K4UN, % of peptide pool [8, 10]: 81.8781% | H3R2UN: Q5ME1, % of peptide pool [8, 10]: 0.02831% | H3R2UN: Q5UN, % of peptide pool [8, 10]: 99.9717% | H3.1: K27AC, % of peptide pool [8, 10]: 2.414% | H3.1: K27ME1, % of peptide pool [8, 10]: 49.3304% | H3.1: K27ME2, % of peptide pool [8, 10]: 16.204% | H3.1: K27ME3, % of peptide pool [8, 10]: 1.814% | H3.1: K27UN, % of peptide pool [8, 10]: 30.2382% | H3.1: K36AC, % of peptide pool [8, 10]: 0.1106% | H3.1: K36ME1, % of peptide pool [8, 10]: 13.2702% | H3.1: K36ME2, % of peptide pool [8, 10]: 51.7553% | H3.1: K36ME3, % of peptide pool [8, 10]: 20.9267% | H3.1: K36UN, % of peptide pool [8, 10]: 13.9372% | H3.3: K27AC, % of peptide pool [8, 10]: 4.408% | H3.3: K27M, % of peptide pool [8, 10]: 0% | H3.3: K27ME1, % of peptide pool [8, 10]: 52.2182% | H3.3: K27ME2, % of peptide pool [8, 10]: 11.913% | H3.3: K27ME3, % of peptide pool [8, 10]: 2.973% | H3.3: K27UN, % of peptide pool [8, 10]: 28.488% | H3.3: K36AC, % of peptide pool [8, 10]: 1.2917% | H3.3: K36ME1, % of peptide pool [8, 10]: 11.4367% | H3.3: K36ME2, % of peptide pool [8, 10]: 56.7436% | H3.3: K36ME3, % of peptide pool [8, 10]: 20.5666% | H3.3: K36UN, % of peptide pool [8, 10]: 9.961% | H4: K5AC, % of peptide pool [8, 10]: 7.467% | H4: K5UN, % of peptide pool [8, 10]: 92.5334% | H4: K8AC, % of peptide pool [8, 10]: 11.3876% | H4: K8UN, % of peptide pool [8, 10]: 88.6124% | H4: K12AC, % of peptide pool ([8]; 2102EP cells, Mod Spec raw data, histone H4 K12 acetylated): 6.714 % of peptide pool | H4: K12UN, % of peptide pool ([8]; 2102EP cells, Mod Spec raw data, histone H4 K12 unmodified): 93.2862 % of peptide pool | H4: K16AC, % of peptide pool ([8]; 2102EP cells, Mod Spec raw data, histone H4 K16 acetylated): 46.6822 % of peptide pool | H4: K16UN, % of peptide pool ([8]; 2102EP cells, Mod Spec raw data, histone H4 K16 unmodified): 53.3178 % of peptide pool | H4: K20AC, % of peptide pool ([8]; 2102EP cells, Mod Spec raw data, histone H4 K20 acetylated): 14.5151 % of peptide pool | H4: K20ME2, % of peptide pool ([8]; 2102EP cells, Mod Spec raw data, histone H4 K20 dimethylated): 53.9426 % of peptide pool | H4: K20ME1, % of peptide pool ([8]; 2102EP cells, Mod Spec raw data, histone H4 K20 monomethylated): 5.183 % of peptide pool | H4: K20ME3, % of peptide pool ([8]; 2102EP cells, Mod Spec raw data, histone H4 K20 trimethylated): 2.177 % of peptide pool | H4: K20UN, % of peptide pool ([8]; 2102EP cells, Mod Spec raw data, histone H4 K20 unmodified): 24.182 % of peptide pool | change of histone modifications of the expected mode of action (Mod Spec) [8, 11]: slightly increased H3K4me2/me3 marks | off-target changes of histone modifications (Mod Spec) [8, 11]: decrease in H4K16ac and H4K20ac
